The numbers were not newly measured in patent publication US20260275225A1, “LIQUID ALKYLATED PHENYL-ALPHA-NAP[…] REDUCED AQUATIC TOXICITY” (BASF SE, priority 2023, published 2026), which cites them from elsewhere.

This data set deals with daphnids. As to conditions: OECD Test 202; from commercially available Amine A safety data sheets.

Each structure is given as a SMILES string. In brackets after ≈: the same amount, converted by molar mass.

For orientation: EC50 means the concentration giving half of the maximal effect. Take `c1ccc(Nc2cccc3ccccc23)cc1` [Amine A, n-Phenyl-1-naphthylamine]: the EC50 was 0.32 µg/mL (≈ 1.46 µM).
